The source of these data is publication PMC7827406, “Structure–Activity Relationship (SAR) Study of Spautin-1 to Entail the Discovery of Novel NEK4 Inhibitors” (International Journal of Molecular Sciences, 2021).

Each structure is given as a SMILES string. Like-named read-outs stand apart in the source and are kept apart here.

Holding throughout (assay): biochemical
Holding throughout (set-up): Eurofins KinaseProfiler full panel at Km ATP, residual kinase activity (%) relative to DMSO

The target of experiment [1] is CLK2(h) (Homo sapiens, UniProt P49760). The essentials: (§1)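 Two 10 µM single-concentration screens were run: a competition-binding screen, in which DNA-tagged kinase bound to immobilized ligands was quantified by qPCR, and a radiometric activity panel at Km ATP. Each is expressed as residual kinase activity (%).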
CLK2(h), sequence (P49760 whole entry): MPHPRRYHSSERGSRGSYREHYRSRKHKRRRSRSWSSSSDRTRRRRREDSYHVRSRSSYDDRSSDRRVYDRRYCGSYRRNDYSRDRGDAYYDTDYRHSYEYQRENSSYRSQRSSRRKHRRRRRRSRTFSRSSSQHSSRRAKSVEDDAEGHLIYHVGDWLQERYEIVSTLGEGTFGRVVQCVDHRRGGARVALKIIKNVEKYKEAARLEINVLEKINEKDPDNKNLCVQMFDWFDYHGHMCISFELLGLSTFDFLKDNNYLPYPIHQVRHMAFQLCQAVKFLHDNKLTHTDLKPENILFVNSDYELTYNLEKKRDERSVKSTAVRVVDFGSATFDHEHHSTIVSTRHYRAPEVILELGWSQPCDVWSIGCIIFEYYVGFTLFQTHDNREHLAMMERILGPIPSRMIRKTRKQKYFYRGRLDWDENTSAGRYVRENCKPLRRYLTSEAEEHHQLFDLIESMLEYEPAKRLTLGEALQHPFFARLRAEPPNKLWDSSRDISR
Experiment [2] has as its target T1, Flt3(D835Y)(h) (Homo sapiens, UniProt P36888, D835Y).
T1 sequence (P36888 1-993 D835Y): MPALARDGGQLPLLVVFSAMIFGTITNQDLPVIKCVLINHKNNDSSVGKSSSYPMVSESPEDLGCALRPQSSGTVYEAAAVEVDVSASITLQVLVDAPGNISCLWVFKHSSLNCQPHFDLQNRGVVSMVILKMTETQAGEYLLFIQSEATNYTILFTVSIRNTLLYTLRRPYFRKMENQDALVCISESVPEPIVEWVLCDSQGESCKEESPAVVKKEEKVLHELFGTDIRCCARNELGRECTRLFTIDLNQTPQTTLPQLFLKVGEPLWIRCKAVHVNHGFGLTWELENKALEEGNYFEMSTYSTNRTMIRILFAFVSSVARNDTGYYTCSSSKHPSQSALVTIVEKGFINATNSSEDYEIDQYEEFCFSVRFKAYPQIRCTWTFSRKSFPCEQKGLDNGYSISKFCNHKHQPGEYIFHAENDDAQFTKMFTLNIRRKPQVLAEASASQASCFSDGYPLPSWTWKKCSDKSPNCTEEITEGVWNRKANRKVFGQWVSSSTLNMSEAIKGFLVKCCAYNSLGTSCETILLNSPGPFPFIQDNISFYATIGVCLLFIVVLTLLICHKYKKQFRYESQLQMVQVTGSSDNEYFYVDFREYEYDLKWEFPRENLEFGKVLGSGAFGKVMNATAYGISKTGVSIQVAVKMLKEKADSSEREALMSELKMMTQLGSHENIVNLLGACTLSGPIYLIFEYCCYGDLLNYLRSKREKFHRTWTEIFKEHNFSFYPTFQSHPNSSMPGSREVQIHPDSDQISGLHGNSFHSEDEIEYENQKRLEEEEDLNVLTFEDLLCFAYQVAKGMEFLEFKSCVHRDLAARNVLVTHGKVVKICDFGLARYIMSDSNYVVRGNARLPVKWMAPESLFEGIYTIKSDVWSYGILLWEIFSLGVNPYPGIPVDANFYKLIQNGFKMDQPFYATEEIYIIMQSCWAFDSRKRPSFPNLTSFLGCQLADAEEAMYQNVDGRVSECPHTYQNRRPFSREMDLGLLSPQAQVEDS
The essentials: as §1

For experiment [3], the target named is Ret(h) (Homo sapiens, UniProt P07949). An outline of the steps: as §1
Ret(h), sequence (P07949 whole entry): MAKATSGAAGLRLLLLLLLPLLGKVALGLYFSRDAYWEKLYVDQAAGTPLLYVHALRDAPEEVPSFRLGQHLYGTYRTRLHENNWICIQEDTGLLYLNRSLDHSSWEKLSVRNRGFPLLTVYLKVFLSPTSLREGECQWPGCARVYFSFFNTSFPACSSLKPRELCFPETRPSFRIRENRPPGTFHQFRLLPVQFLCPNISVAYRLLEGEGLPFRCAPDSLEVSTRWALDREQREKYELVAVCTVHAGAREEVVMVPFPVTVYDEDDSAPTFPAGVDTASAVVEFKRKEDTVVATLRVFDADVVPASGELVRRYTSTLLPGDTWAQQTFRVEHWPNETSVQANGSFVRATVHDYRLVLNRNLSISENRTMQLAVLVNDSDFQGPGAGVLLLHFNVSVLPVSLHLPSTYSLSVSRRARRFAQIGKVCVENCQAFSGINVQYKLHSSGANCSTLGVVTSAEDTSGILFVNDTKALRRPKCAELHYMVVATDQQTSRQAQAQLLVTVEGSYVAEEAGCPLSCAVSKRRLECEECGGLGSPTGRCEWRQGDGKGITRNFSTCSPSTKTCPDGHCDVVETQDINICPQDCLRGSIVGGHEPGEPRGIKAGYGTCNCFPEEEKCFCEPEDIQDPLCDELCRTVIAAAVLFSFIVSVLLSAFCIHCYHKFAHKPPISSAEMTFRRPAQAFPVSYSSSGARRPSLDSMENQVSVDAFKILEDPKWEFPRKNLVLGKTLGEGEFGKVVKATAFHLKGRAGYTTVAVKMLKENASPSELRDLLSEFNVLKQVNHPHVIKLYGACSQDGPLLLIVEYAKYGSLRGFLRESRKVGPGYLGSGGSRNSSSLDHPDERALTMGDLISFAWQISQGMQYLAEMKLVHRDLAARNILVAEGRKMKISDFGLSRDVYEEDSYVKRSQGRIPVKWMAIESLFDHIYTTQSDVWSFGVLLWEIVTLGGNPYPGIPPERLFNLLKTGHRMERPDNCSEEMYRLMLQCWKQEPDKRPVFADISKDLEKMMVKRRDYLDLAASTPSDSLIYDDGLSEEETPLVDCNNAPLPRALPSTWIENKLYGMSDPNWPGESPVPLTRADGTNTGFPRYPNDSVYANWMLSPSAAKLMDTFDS
In experiment [4] the target is T2, TLK1(h) (Homo sapiens, UniProt Q9UKI8).
T2 sequence (Q9UKI8 1-766): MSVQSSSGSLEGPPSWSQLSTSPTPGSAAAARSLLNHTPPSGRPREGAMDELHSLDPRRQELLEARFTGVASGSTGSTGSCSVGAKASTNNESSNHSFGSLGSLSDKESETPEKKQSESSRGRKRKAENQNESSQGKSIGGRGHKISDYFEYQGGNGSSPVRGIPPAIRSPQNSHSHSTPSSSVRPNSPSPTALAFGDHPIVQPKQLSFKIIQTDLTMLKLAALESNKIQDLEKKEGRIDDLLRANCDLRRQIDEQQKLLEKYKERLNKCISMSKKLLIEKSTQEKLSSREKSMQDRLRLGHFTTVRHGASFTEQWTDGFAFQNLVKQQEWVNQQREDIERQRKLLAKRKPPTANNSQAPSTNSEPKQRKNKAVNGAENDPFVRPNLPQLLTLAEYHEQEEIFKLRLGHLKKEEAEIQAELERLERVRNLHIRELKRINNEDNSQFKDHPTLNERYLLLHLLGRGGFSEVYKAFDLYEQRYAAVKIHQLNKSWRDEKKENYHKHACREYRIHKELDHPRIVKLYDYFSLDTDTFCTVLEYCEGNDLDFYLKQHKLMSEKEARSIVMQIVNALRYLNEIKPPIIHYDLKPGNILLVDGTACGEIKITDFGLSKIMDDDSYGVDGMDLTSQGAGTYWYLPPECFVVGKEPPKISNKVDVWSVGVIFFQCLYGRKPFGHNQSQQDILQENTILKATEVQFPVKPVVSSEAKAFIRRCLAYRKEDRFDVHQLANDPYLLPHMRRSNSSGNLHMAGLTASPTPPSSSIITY
An outline of the steps:
as §1

Experiment [5] deals with T3, cKit(D816V)(h) (Homo sapiens, UniProt P10721, D816V).
T3 construct: gene KIT
T3 sequence (P10721 whole entry D816V): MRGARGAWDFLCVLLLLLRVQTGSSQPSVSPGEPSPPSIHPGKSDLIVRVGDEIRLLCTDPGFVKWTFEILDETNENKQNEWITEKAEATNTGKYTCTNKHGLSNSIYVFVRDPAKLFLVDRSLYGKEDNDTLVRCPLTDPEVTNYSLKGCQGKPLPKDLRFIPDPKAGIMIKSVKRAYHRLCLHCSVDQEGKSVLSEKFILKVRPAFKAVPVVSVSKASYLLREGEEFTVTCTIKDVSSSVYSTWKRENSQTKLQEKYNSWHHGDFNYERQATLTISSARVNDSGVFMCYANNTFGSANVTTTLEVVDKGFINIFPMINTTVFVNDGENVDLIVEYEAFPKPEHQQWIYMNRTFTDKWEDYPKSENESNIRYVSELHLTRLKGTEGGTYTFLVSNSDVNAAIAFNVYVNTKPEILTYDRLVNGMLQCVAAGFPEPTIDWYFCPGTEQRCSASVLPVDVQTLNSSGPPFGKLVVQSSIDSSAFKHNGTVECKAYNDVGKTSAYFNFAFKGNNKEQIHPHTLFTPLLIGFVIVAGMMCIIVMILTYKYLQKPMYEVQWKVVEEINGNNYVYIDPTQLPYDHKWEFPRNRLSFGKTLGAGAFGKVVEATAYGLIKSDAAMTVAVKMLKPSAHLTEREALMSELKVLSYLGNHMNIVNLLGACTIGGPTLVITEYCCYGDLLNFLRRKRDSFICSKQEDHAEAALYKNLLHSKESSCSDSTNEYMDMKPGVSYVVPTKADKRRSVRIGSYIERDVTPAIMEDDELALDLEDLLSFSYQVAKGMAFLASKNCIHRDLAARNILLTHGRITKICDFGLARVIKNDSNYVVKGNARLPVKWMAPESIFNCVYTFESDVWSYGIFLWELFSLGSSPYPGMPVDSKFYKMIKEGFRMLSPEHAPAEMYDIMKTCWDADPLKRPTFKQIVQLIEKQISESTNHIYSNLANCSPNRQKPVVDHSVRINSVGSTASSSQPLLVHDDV
The essentials:
as §1

In experiment [6] the target is mTOR(h) (Homo sapiens, UniProt P42345). An outline of the steps:
as §1

Setting [7] is: read-out: Residual activity (%) 5at.
Where [8] appears, read: read-out: Residual activity (%) 5ay.
The mark [9] stands for this setting: read-out: Residual activity (%) 5as.
Setting [10] is: read-out: Residual activity (%) Spautin-1 5aa.

Take `Fc1ccc2ncnc(NCCc3ccc(Cl)cc3)c2c1` [5at, N-[2-(4-Chlorophenyl)Ethyl]-6-Fluoro-4-Quinazolinamine]: the remaining activity at 10 µM in experiment [1] (setting [7]) came to 60%; in experiment [2] (setting [7]) it was 80%; in experiment [3] (setting [7]), 62%; in experiment [4] (setting [7]), 97%; in experiment [5] (setting [7]), 98%; in experiment [6] (setting [7]), 80%.

Consider `COc1ccc2ncnc(Nc3cccc(F)c3)c2c1` [5ay, N-(3-Fluorophenyl)-6-Methoxy-4-Quinazolinamine], for which the remaining activity at 10 µM is 43% in experiment [1] (setting [8]); 49% in experiment [2] (setting [8]); 43% in experiment [3] (setting [8]); 107% in experiment [4] (setting [8]); 125% in experiment [5] (setting [8]); 77% in experiment [6] (setting [8]).

`Fc1ccc(CCNc2ncnc3ccc(F)cc23)cc1` [5as, 6-Fluoro-N-[2-(4-Fluorophenyl)Ethyl]-4-Quinazolinamine]: the remaining activity at 10 µM stood at 53% in experiment [1] (setting [9]); 87% in experiment [2] (setting [9]); 99% in experiment [3] (setting [9]); 112% in experiment [4] (setting [9]); 111% in experiment [5] (setting [9]); 76% in experiment [6] (setting [9]).

For `Fc1ccc(CNc2ncnc3ccc(F)cc23)cc1` [5aa, 6-Fluoro-N-(4-fluorobenzyl)-4-Quinazolinamine], the remaining activity at 10 µM in experiment [1] (setting [10]) was 47%; in experiment [2] (setting [10]) it was 91%; in experiment [3] (setting [10]) it was 69%; in experiment [4] (setting [10]), 112%; in experiment [5] (setting [10]), 105%; in experiment [6] (setting [10]) it was 79%.
